Reference: article PMC12344683, “N-alkyl and N-benzyl indoles are anti-SARS-CoV-2 agents and nsp13 inhibitors” (Journal of Enzyme Inhibition and Medicinal Chemistry, 2025)
Read-outs that look alike come from different tables or passages of the source.

System: SARS-CoV-2
Assay: microbe, parasite or virus in culture
Format: cell-based, SARS-CoV-2 variant omicron XBB.1.16.11
Settings: for antiviral activity against SARS-CoV-2 (in words): up to 50 μM
[1] = Severe acute respiratory syndrome coronavirus 2, Vero C1008, read-out: EC50, concentration required to reduce the SARS-CoV-2 replication in Vero cells by 50%
[2] = Severe acute respiratory syndrome coronavirus 2, plaque assay, SARS-CoV-2 in Vero cells, read-out: 95% confidence interval (CI) of EC50

Structure (SMILES) | EC50 [1] | EC50 [2] | antiviral activity against SARS-CoV-2 (in words) (plaque assay)
CC(C)c1ccc(Cn2cc(/C=C/C(=O)/C=C(\O)C(=O)O)c3ccccc32)cc1 [5c] | 9.41 ± 0.91 µM | 8.54 to 10.4 µM | 
O=C(/C=C(\O)C(=O)O)/C=C/c1cn(Cc2ccc(OC(F)(F)F)cc2)c2ccccc12 [5e] | 9.4 ± 2.26 µM | 7.36 to 11.9 µM | 
N#Cc1ccc(Cn2cc(/C=C/C(=O)/C=C(\O)C(=O)O)c3ccccc32)cc1 [5g, (2Z,5E)-6-(1-(4-cyanobenzyl)-1H-indol-3-yl)-2-hydroxy-4-oxohexa-2,5-dienoic acid] | 14.5 ± 4.2 µM | 10.9 to 19.3 µM | 
O=C(/C=C(\O)C(=O)O)/C=C/c1cn(Cc2ccc(F)cc2)c2ccc(Cl)cc12 [5i, (2Z,5E)-6-(5-chloro-1-(4-fluorobenzyl)-1H-indol-3-yl)-2-hydroxy-4-oxohexa-2,5-dienoic acid] | 6.77 ± 1.17 µM | 5.69 to 8.03 µM | 
CCOC(=O)/C(O)=C/C(=O)/C=C/c1cn(Cc2ccc(OC(F)(F)F)cc2)c2ccccc12 [6e] | 50 µM |  | low activity
CCOC(=O)/C(O)=C/C(=O)c1cn(Cc2ccc(F)cc2)c2ccccc12 [8d, Ethyl (Z)-4-(1-(4-fluorobenzyl)-1H-indol-3-yl)-2-hydroxy-4-oxobut-2-enoate] | > 50 µM |  | not showed any antiviral activity up to the maximum concentration tested
CC(C)=Cn1cc(/C=C/C(=O)/C=C(\O)C(=O)O)c2ccccc21 [9c, (2Z,5E)-2-hydroxy-6-(1-(2-methylprop-1-en-1-yl)-1H-indol-3-yl)-4-oxohexa-2,5-dienoic acid] | 4.23 ± 0.96 µM | 3.33 to 5.26 µM | 
